One assay concerns the target T1, recombinant full-length human prolyl endopeptidase (PREP) (Homo sapiens, UniProt P48147).
T1 construct: To recombinant full-length human prolyl endopeptidase (PREP, R&D-Systems, 4308-SE); purchased R&D-Systems 4308-SE
T1 sequence (P48147 1-710): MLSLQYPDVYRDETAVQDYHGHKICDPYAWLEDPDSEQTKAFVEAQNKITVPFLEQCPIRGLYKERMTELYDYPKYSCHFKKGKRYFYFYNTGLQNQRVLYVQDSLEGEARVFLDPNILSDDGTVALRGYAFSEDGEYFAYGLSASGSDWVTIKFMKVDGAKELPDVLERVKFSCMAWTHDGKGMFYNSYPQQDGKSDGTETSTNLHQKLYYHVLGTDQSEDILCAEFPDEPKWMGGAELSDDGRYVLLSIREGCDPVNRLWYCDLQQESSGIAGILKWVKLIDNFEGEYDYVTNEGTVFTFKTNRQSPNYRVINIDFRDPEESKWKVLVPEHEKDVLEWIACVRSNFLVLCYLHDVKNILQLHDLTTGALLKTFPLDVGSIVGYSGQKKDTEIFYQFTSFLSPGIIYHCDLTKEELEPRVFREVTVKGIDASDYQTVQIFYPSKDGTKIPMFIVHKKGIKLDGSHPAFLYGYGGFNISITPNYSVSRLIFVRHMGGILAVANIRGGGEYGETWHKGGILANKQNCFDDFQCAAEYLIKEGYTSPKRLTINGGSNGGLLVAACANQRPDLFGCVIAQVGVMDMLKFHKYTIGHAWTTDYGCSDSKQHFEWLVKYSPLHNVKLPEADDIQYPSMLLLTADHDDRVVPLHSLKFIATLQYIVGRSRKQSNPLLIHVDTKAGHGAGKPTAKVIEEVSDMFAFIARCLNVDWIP
Put plainly: Biochemical human prolyl endopeptidase (PREP) assay with fluorescently labelled substrate. As to conditions: substrate Z-Gly-Pro-AMC 50 μM, 32° C., 60 min; some as mean values from multiple independent determinations. The gist of the method: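 Initial rates of fluorescence increase from 50 μM Z-Gly-Pro-AMC cleavage (ex 360/em 465 nm, 60 min, 32° C) give percent PREP activity versus no-compound control, and IC50 is interpolated. Enzyme used at 0.4 nM (final, example) in Tris pH 7.5 with EDTA, GSH, BSA and Brij-35; compounds span 1 nM to 30 μM.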
In the case of `O=C([C@@H]1CCC(F)(F)c2nn(Cc3ncc(Cl)cc3F)c(=O)n21)N1CC[C@H](F)C1` [Example 556, (5S)-2-[(5-chloro-3-fluoropyridin-2-yl)methyl]-8,8-difluoro-5-{[(3S)-3-fluoropyrrolidin-1-yl]carbonyl}-5,6,7,8-tetrahydro[1,2,4]triazolo[4,3-a]pyridin-3(2H)-one], the half-inhibitory concentration (IC50) came to 0.63 nM. As to `O=C([C@@H]1CCC(F)(F)c2nn(Cc3ccc(Cl)nc3)c(=O)n21)N1CCC(F)(F)C1` [Example 557, (5S)-2-[(6-Chloropyridin-3-yl)methyl]-5-[(3,3-difluoropyrrolidin-1-yl)carbonyl]-8,8-difluoro-5,6,7,8-tetrahydro[1,2,4]triazolo[4,3-a]pyridin-3(2H)-one], the concentration for half-maximal inhibition (IC50) was found to be 3.2 nM.

Turning to `O=C([C@@H]1CC=Cc2nn(Cc3ccc(C(F)(F)F)nc3)c(=O)n21)N1C[C@@H](F)[C@@H](F)C1` [Example 558, (5S)-5-{[(3R,4S)-3,4-Difluoropyrrolidin-1-yl]carbonyl}-2-{[6-(trifluoromethyl)pyridin-3-yl]methyl}-5,6-dihydro[1,2,4]triazolo[4,3-a]pyridin-3(2H)-one], the IC50 came to 1.9 nM.

Consider `O=C([C@@H]1CCCc2nn(Cc3cnc(C(F)(F)F)nc3)c(=O)n21)N1CC[C@H](F)C1` [Example 559, (5S)-5-{[(3S)-3-Fluoropyrrolidin-1-yl]carbonyl}-2-{[2-(trifluoromethyl)pyrimidin-5-yl]methyl}-5,6,7,8-tetrahydro[1,2,4]triazolo[4,3-a]pyridin-3(2H)-one], for which the half-inhibitory concentration (IC50) was determined as 35 nM. As for `O=C([C@@H]1CCCc2nn(Cc3ncc(F)cc3Cl)c(=O)n21)N1CC[C@H](F)C1` [Example 560, (5S)-2-[(3-Chloro-5-fluoropyridin-2-yl)methyl]-5-{[(3S)-3-fluoropyrrolidin-1-yl]carbonyl}-5,6,7,8-tetrahydro[1,2,4]triazolo[4,3-a]pyridin-3(2H)-one], the half-maximal inhibitory concentration (IC50) came to 0.43 nM.

As to `O=C([C@@H]1CCCc2nn(Cc3ncc(Cl)cc3F)c(=O)n21)N1CC[C@H](F)C1` [Example 568, (5S)-2-[(5-Chloro-3-fluoropyridin-2-yl)methyl]-5-{[(3S)-3-fluoropyrrolidin-1-yl]carbonyl}-5,6,7,8-tetrahydro[1,2,4]triazolo[4,3-a]pyridin-3(2H)-one], the IC50 amounted to 0.62 nM.

Take `O=C([C@@H]1CCCc2nn(Cc3cncc(C(F)(F)F)c3)c(=O)n21)N1C[C@@H](F)[C@@H](F)C1` [Example 578, (5S)-5-{[(3R,4S)-3,4-Difluoropyrrolidin-1-yl]carbonyl}-2-{[5-(trifluoromethyl)pyridin-3-yl]methyl}-5,6,7,8-tetrahydro[1,2,4]triazolo[4,3-a]pyridin-3(2H)-one]: the concentration for half-maximal inhibition (IC50) came out at 2.3 nM. Still for that read-out and setting: in the case of `O=C([C@@H]1CCCc2nn(Cc3cncc(C(F)(F)F)c3)c(=O)n21)N1CCC(F)(F)C1` [Example 579, (5S)-5-[(3,3-Difluoropyrrolidin-1-yl)carbonyl]-2-{[5-(trifluoromethyl)pyridin-3-yl]methyl}-5,6,7,8-tetrahydro[1,2,4]triazolo[4,3-a]pyridin-3(2H)-one] it was 1.1 nM. Consider `O=C([C@@H]1CCCc2nn(Cc3ncc(F)cc3F)c(=O)n21)N1CC[C@H](F)C1` [Example 581, (5S)-2-[(3,5-Difluoropyridin-2-yl)methyl]-5-{[(3S)-3-fluoropyrrolidin-1-yl]carbonyl}-5,6,7,8-tetrahydro[1,2,4]triazolo[4,3-a]pyridin-3(2H)-one], for which the half-inhibitory concentration (IC50) is 0.3 nM.

`O=C([C@@H]1CCC(F)(F)c2nn(Cc3ccc(Cl)cn3)c(=O)n21)N1CCC(F)(F)C1` [Example 586, (5S)-2-[(5-Chloropyridin-2-yl)methyl]-5-[(3,3-difluoropyrrolidin-1-yl)carbonyl]-8,8-difluoro-5,6,7,8-tetrahydro[1,2,4]triazolo[4,3-a]pyridin-3(2H)-one]: the IC50 is 14 nM.

For `O=C([C@@H]1CCC(F)(F)c2nn(Cc3ccc(Cl)cn3)c(=O)n21)N1CC(F)C1` [Example 587, (5S)-2-[(5-Chloropyridin-2-yl)methyl]-8,8-difluoro-5-[(3-fluoroazetidin-1-yl)carbonyl]-5,6,7,8-tetrahydro[1,2,4]triazolo[4,3-a]pyridin-3(2H)-one], the half-inhibitory concentration (IC50) stood at 6.4 nM. The same measure, in the same setting: in the case of `O=C([C@@H]1CCC(F)(F)c2nn(Cc3ncc(F)cc3F)c(=O)n21)N1CCC(F)(F)C1` [Example 588, (5S)-2-[(3,5-Difluoropyridin-2-yl)methyl]-5-[(3,3-difluoropyrrolidin-1-yl)carbonyl]-8,8-difluoro-5,6,7,8-tetrahydro[1,2,4]triazolo[4,3-a]pyridin-3(2H)-one] it was 18 nM. The same measure, in the same setting: then `O=C([C@@H]1CCC(F)(F)c2nn(Cc3ncc(C(F)(F)F)cc3Cl)c(=O)n21)N1CC[C@H](F)C1` [Example 589, (5S)-2-{[3-Chloro-5-(trifluoromethyl)pyridin-2-yl]methyl}-8,8-difluoro-5-{[(3S)-3-fluoropyrrolidin-1-yl]carbonyl}-5,6,7,8-tetrahydro[1,2,4]triazolo[4,3-a]pyridin-3(2H)-one], with 0.35 nM; and `O=C([C@@H]1CCC(F)(F)c2nn(Cc3ncc(C(F)(F)F)cc3Cl)c(=O)n21)N1CCC(F)(F)C1` [Example 590, (5S)-2-{[3-Chloro-5-(trifluoromethyl)pyridin-2-yl]methyl}-5-[(3,3-difluoropyrrolidin-1-yl)carbonyl]-8,8-difluoro-5,6,7,8-tetrahydro[1,2,4]triazolo[4,3-a]pyridin-3(2H)-one], with 3.9 nM.

A further assay has as its system PGP.
Assay: not given
As to conditions: COPD patients treated; cited from earlier work.
As for `O=C(Nc1c(Cl)cncc1Cl)c1ccc(OC(F)F)c(OCC2CC2)c1` [roflumilast], the “concentration of PGP in the sputum and serum” value is given as “decrease”.

Values taken from patent US10722501B2 (BAYER AKTIENGESELLSCHAFT, priority 2016, dated 2020).
